# Experimental data as given in PMC11852049, “Impact of Hydrophobic, Hydrophilic, and Mucus-Binding Motifs on the Therapeutic Potential of Ceftazidime Analogs for Pulmonary Administration” (Antibiotics, 2025).
# Key:
# Pseudomonas aeruginosa = test: microbe, parasite or virus in culture; assay type: cell-based; conditions: for MIC: Pseudomonas aeruginosa, 24 h, read-out: MIC Pa
# [1] = Transepithelial transport assay (Papp), HBEC air–liquid interface cultures on Transwells; conditions: human, Papp (apparent permeability), mean ± standard deviation, apical to basal over 24 h, approx. 5 mg/mL apical
# Escherichia coli = test: microbe, parasite or virus in culture; assay type: cell-based; conditions: 24 h, read-out: MIC Ec
# [2] = tested on: Staphylococcus aureus Newman; test: microbe, parasite or virus in culture; assay type: cell-based; conditions: for MIC: Staphylococcus aureus, NEWMAN, 24 h, read-out: MIC Sa
# [3] = tested on: Burkholderia pseudomallei; test: microbe, parasite or virus in culture; assay type: cell-based; conditions: for MIC: Burkholderia pseudomallei, 24 h, read-out: MIC Bp; for MIC Bp: 24 h at 37 °C, cation-adjusted Mueller–Hinton II broth, mean of two replicates
# [4] = design: method as in PMID 29096171, PMID 7629560; conditions: delivered via injection; cited from earlier work
# [5] = compound set 2, three donors (L8 excluded)
Compound,MIC (Pseudomonas aeruginosa),"Papp at 24 h ([1]; compound set 1, three donors)","Papp at 24 h [1, 5]",MIC (Escherichia coli),MIC [2],MIC [3],penetration ratio (PELF-to-total plasma concentration) [4],MIC Pa (Pseudomonas aeruginosa),MIC Bp [3],MIC Sa [2]
"CC(C)(O/N=C(\C(=O)N[C@@H]1C(=O)N2C(C(=O)[O-])=C(C[n+]3ccccc3)CS[C@H]12)c1csc(N)n1)C(=O)O [Ceftazidime pentahydrate, ceftazidime pentahydrate, reference compound]",6 µg/mL,3.36 ± 0.18 ×10⁻⁶ cm/s,2.54 ×10⁻⁶ cm/s,0.4 µg/mL,13 µg/mL,3 µg/mL,20–30%,–,–,–
"CCCCNC(=O)C(C)(C)O/N=C(/C(=O)N[C@@H]1C(=O)N2C(C(=O)[O-])=C(C[n+]3ccccc3)CS[C@H]12)c1csc(N)n1 [Compound 1, n-butyl-ceftazidime]",200 µg/mL,1.91 ± 0.45 ×10⁻⁶ cm/s,–,100 µg/mL,6 µg/mL,200 µg/mL,–,–,–,–
CC(C)(O/N=C(/C(=O)N[C@@H]1C(=O)N2C(C(=O)[O-])=C(C[n+]3ccccc3)CS[C@H]12)c1csc(N)n1)C(=O)NCCc1ccccc1 [Compound 3],200 µg/mL,–,4.65 ± 0.86 ×10⁻⁶ cm/s,100 µg/mL,3 µg/mL,200 µg/mL,–,–,–,–
CC(C)(O/N=C(/C(=O)N[C@@H]1C(=O)N2C(C(=O)[O-])=C(C[n+]3ccccc3)CS[C@H]12)c1csc(N)n1)C(=O)NCCc1cc(O)c(O)cc1Cl [Compound 4],19 µg/mL,–,2.94 ± 0.63 ×10⁻⁶ cm/s,< 15 µg/mL,38 µg/mL,1.6 µg/mL,–,< 60 µg/mL,< 60 µg/mL,–
CC(C)(O/N=C(/C(=O)N[C@@H]1C(=O)N2C(C(=O)[O-])=C(C[n+]3ccccc3)CS[C@H]12)c1csc(N)n1)C(=O)NCCCS(=O)(=O)c1ccccc1 [Compound 5],200 µg/mL,–,2.71 ± 0.93 ×10⁻⁶ cm/s,< 15 µg/mL,13 µg/mL,150 µg/mL,–,–,–,–
CC(C)(O/N=C(/C(=O)N[C@@H]1C(=O)N2C(C(=O)[O-])=C(C[n+]3ccccc3)CS[C@H]12)c1csc(N)n1)C(=O)NCCCCCCOCCCCc1ccccc1 [Compound 6],200 µg/mL,–,2.45 ± 0.21 ×10⁻⁶ cm/s,100 µg/mL,3 µg/mL,> 200 µg/mL,–,–,–,–
COCCOCCOCCNC(=O)C(C)(C)O/N=C(/C(=O)N[C@@H]1C(=O)N2C(C(=O)[O-])=C(C[n+]3ccccc3)CS[C@H]12)c1csc(N)n1 [Compound 7],> 200 µg/mL,–,3.6 ± 1.1 ×10⁻⁶ cm/s,100 µg/mL,50 µg/mL,> 200 µg/mL,–,–,–,–
COCCOCCOCCOCCOCCNC(=O)C(C)(C)O/N=C(/C(=O)N[C@@H]1C(=O)N2C(C(=O)[O-])=C(C[n+]3ccccc3)CS[C@H]12)c1csc(N)n1 [Compound 8],> 200 µg/mL,2.23 ± 0.22 ×10⁻⁶ cm/s,–,≥ 100 µg/mL,100 µg/mL,> 200 µg/mL,–,≥ 100 µg/mL,≥ 100 µg/mL,≥ 100 µg/mL
COCCOCCOCCOCCOCCOCCOCCOCCNC(=O)C(C)(C)O/N=C(/C(=O)N[C@@H]1C(=O)N2C(C(=O)[O-])=C(C[n+]3ccccc3)CS[C@H]12)c1csc(N)n1 [Compound 9],> 200 µg/mL,1.86 ± 0.39 ×10⁻⁶ cm/s,–,≥ 100 µg/mL,200 µg/mL,> 200 µg/mL,–,≥ 100 µg/mL,≥ 100 µg/mL,≥ 100 µg/mL
CC(C)(O/N=C(/C(=O)N[C@@H]1C(=O)N2C(C(=O)[O-])=C(C[n+]3ccccc3)CS[C@H]12)c1csc(N)n1)C(=O)NC1C(O)O[C@H](CO)[C@@H](O)[C@@H]1O (some centres unmarked) [Compound 10],50 µg/mL,–,2.75 ± 0.68 ×10⁻⁶ cm/s,< 4 µg/mL,150 µg/mL,38 µg/mL,–,< 60 µg/mL,< 60 µg/mL,–
CCN(CC)CCNC(=O)C(C)(C)O/N=C(/C(=O)N[C@@H]1C(=O)N2C(C(=O)[O-])=C(C[n+]3ccccc3)CS[C@H]12)c1csc(N)n1 [Compound 11],150 µg/mL,3.58 ± 0.5 ×10⁻⁶ cm/s,–,63 µg/mL,25 µg/mL,75 µg/mL,–,–,–,< 40 µg/mL
CN1CCN(CCNC(=O)C(C)(C)O/N=C(/C(=O)N[C@@H]2C(=O)N3C(C(=O)[O-])=C(C[n+]4ccccc4)CS[C@H]23)c2csc(N)n2)CC1 [Compound 12],> 200 µg/mL,–,2.6 ± 0.94 ×10⁻⁶ cm/s,≥ 100 µg/mL,> 200 µg/mL,> 200 µg/mL,–,≥ 100 µg/mL,≥ 100 µg/mL,≥ 100 µg/mL
CC(C)(O/N=C(/C(=O)N[C@@H]1C(=O)N2C(C(=O)[O-])=C(C[n+]3ccccc3)CS[C@H]12)c1csc(N)n1)C(=O)NC(CCC(=O)O)C(=O)O (some centres unmarked) [Compound 13],200 µg/mL,–,2.79 ± 0.91 ×10⁻⁶ cm/s,< 15 µg/mL,200 µg/mL,200 µg/mL,–,–,–,–
CC(C)(O/N=C(/C(=O)N[C@@H]1C(=O)N2C(C(=O)[O-])=C(C[n+]3ccccc3)CS[C@H]12)c1csc(N)n1)C(=O)NCCNc1ccnc(N)n1 [Compound 14],100 µg/mL,–,2.03 ± 0.6 ×10⁻⁶ cm/s,≥ 100 µg/mL,> 200 µg/mL,> 200 µg/mL,–,≥ 100 µg/mL,≥ 100 µg/mL,≥ 100 µg/mL
"CC(C)(O/N=C(/C(=O)N[C@@H]1C(=O)N2C(C(=O)[O-])=C(C[n+]3ccccc3)CS[C@H]12)c1csc(N)n1)C(=O)NCCOCCOCCOCCOCCOCCNc1ccnc(N)n1 [Compound 15, PEG5-pyrimidin-2-amine-ceftazidime]",> 200 µg/mL,1.75 ± 0.06 ×10⁻⁶ cm/s,–,38 µg/mL,50 µg/mL,200 µg/mL,–,–,–,–
"CC(C)(O/N=C(/C(=O)N[C@@H]1C(=O)N2C(C(=O)[O-])=C(C[n+]3ccccc3)CS[C@H]12)c1csc(N)n1)C(=O)NCCCSc1ccc(B(O)O)cc1 [Compound 16, 4-propylthiophenyl boronic acid-ceftazidime]",> 200 µg/mL,–,4.9 ± 1.4 ×10⁻⁶ cm/s,50 µg/mL,3 µg/mL,200 µg/mL,–,–,–,–
CC(C)(O/N=C(/C(=O)N[C@@H]1C(=O)N2C(C(=O)[O-])=C(C[n+]3ccccc3)CS[C@H]12)c1csc(N)n1)C(=O)NCCCS(=O)(=O)c1ccc(B(O)O)cc1 [Compound 17],200 µg/mL,–,3.33 ± 0.36 ×10⁻⁶ cm/s,50 µg/mL,13 µg/mL,200 µg/mL,–,–,–,–
CC(C)(O/N=C(/C(=O)N[C@@H]1C(=O)N2C(C(=O)[O-])=C(C[n+]3ccccc3)CS[C@H]12)c1csc(N)n1)C(=O)NCCNC(=O)c1ccc(B(O)O)cc1 [Compound 18],50 µg/mL,–,2.21 ± 0.45 ×10⁻⁶ cm/s,–,25 µg/mL,50 µg/mL,–,< 60 µg/mL,< 60 µg/mL,–
